Measurements: ChEMBL document CHEMBL1201862, “PubChem BioAssay data set” (2004)
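Each compound was tested at five concentrations against cells in 96-well plates for 48 hours. At the GI50, growth is halved.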 Activity calls are given as the source filed them. Cut-off read from the data, not from the text of the source: active = GI50 up to about 1.1 µM and inactive = higher.

Key:
Experiment in all cases: DTP human tumour cell line panel, 48 h
[1] = test system: OVCAR-5
[2] = test system: HT-29
[3] = test system: NCI-H460
[4] = test system: HOP-62
[5] = test system: SK-MEL-2
[6] = test system: MCF7
[7] = test system: UACC-257
[8] = test system: COLO 205
[9] = test system: K562
[10] = test system: HCT-116
[11] = test system: SK-OV-3
[12] = test system: NCI-H522
[13] = test system: SW-620
[14] = test system: SK-MEL-28
[15] = test system: OVCAR-3
[16] = test system: SF-295
[17] = test system: HOP-92
[18] = test system: M14
[19] = test system: MOLT-4
[20] = test system: A549

Row | Structure (SMILES) | GI50 [1] | GI50 [2] | GI50 [3] | GI50 [4] | GI50 [5] | GI50 [6] | GI50 [7] | GI50 [8] | GI50 [9] | GI50 [10] | GI50 [11] | GI50 [12] | GI50 [13] | GI50 [14] | GI50 [15] | GI50 [16] | GI50 [17] | GI50 [18] | GI50 [19] | GI50 [20]
1 | CC(C)CC(NC(=O)C(Cc1ccccc1)NC(=O)[C@H]1CC[C@H](NC(=O)C(Cc2ccc(OC(C)(C)C)cc2)NC(=O)OC(C)(C)C)C1)C(N)=O (some centres undefined) | 31 µM (inactive) | 18.9 µM (inactive) | 17.3 µM (inactive) | 36.2 µM (inactive) | 20.2 µM (inactive) | 17.3 µM (inactive) | 19.7 µM (inactive) | 18.8 µM (inactive) | 17 µM (inactive) | 14.7 µM (inactive) | 44.7 µM (inactive) | 14.4 µM (inactive) | 29.2 µM (inactive) | 20.2 µM (inactive) | 25.9 µM (inactive) | 28.8 µM (inactive) | 23.8 µM (inactive) | 16.6 µM (inactive) | 12.5 µM (inactive) | 50.9 µM (inactive)
2 | CC(C)Oc1cccc(N2C(Nc3ccccc3)=Nc3ccncc3S2(=O)=O)c1 | 48.1 µM (inactive) | 12.2 µM (inactive) | 13.3 µM (inactive) | 32.7 µM (inactive) | 7.01 µM (inactive) | 17.6 µM (inactive) | 17.4 µM (inactive) | 13.1 µM (inactive) | 76 µM (inactive) | 20.4 µM (inactive) | 44 µM (inactive) | 30.6 µM (inactive) | 17.3 µM (inactive) | 0.32 µM (active) | 18.4 µM (inactive) | 23.1 µM (inactive) | 16.2 µM (inactive) | 25.3 µM (inactive) | > 100 µM (inactive) | 20.4 µM (inactive)
3 | CC1=NNC(=S)NCCCN2CCN(CCCNC(=S)NN=C(C)C=NNC(=S)NCCCN3CCN(CCCNC(=S)NN=C1)CC3)CC2 | > 100 µM (inactive) | > 100 µM (inactive) |  | > 100 µM (inactive) | > 100 µM (inactive) | > 100 µM (inactive) | > 100 µM (inactive) | > 100 µM (inactive) | > 100 µM (inactive) | > 100 µM (inactive) | > 100 µM (inactive) | > 100 µM (inactive) | > 100 µM (inactive) | > 100 µM (inactive) | > 100 µM (inactive) | > 100 µM (inactive) | > 100 µM (inactive) | > 100 µM (inactive) | > 100 µM (inactive) | > 100 µM (inactive)
4 | NC(CNO)C(=O)O (centres undefined) | > 100 µM (inactive) | > 100 µM (inactive) | > 100 µM (inactive) | > 100 µM (inactive) | > 100 µM (inactive) | > 100 µM (inactive) | > 100 µM (inactive) | > 100 µM (inactive) |  | > 100 µM (inactive) | > 100 µM (inactive) | > 100 µM (inactive) | > 100 µM (inactive) | > 100 µM (inactive) | > 100 µM (inactive) | > 100 µM (inactive) | > 100 µM (inactive) | > 100 µM (inactive) |  | > 100 µM (inactive)
5 | O=C(O)c1ccc2c(O)c(O)ccc2c1 | 26.3 µM (inactive) | 6.82 µM (inactive) |  | 20.7 µM (inactive) | 26.8 µM (inactive) | 7.23 µM (inactive) | 21.1 µM (inactive) | 26.2 µM (inactive) | 7.8 µM (inactive) | 25.9 µM (inactive) | > 43.1 µM (inactive) | 16.9 µM (inactive) | 26.5 µM (inactive) | > 100 µM (inactive) | 18.8 µM (inactive) | 15.2 µM (inactive) | 32.8 µM (inactive) | 23.5 µM (inactive) | 6.75 µM (inactive) | 28 µM (inactive)
6 | Cc1cn(CC2=NCC(C)N2)c(=O)[nH]c1=O (centres undefined) | > 100 µM (inactive) | > 100 µM (inactive) | > 100 µM (inactive) | > 100 µM (inactive) | > 100 µM (inactive) | > 100 µM (inactive) | > 100 µM (inactive) | > 100 µM (inactive) | > 100 µM (inactive) | > 100 µM (inactive) | > 100 µM (inactive) | > 100 µM (inactive) | > 100 µM (inactive) | > 100 µM (inactive) |  | > 100 µM (inactive) | > 100 µM (inactive) | > 100 µM (inactive) | > 100 µM (inactive) | > 100 µM (inactive)
7 | O=C(O)CNC(=O)C(CSC(=O)OCC1c2ccccc2-c2ccccc21)NC(=O)CCC(NC(=O)OCC1c2ccccc2-c2ccccc21)C(=O)O (centres undefined) | > 100 µM (inactive) |  | 18.6 µM (inactive) | 14.2 µM (inactive) | > 100 µM (inactive) | > 100 µM (inactive) | > 100 µM (inactive) | 16.5 µM (inactive) | 17.1 µM (inactive) | 18 µM (inactive) | > 100 µM (inactive) | 1.57 µM (inactive) | 19 µM (inactive) | > 100 µM (inactive) | > 100 µM (inactive) | 16.6 µM (inactive) | 21.7 µM (inactive) | > 100 µM (inactive) | 20.1 µM (inactive) | 14.3 µM (inactive)
